Data taken from PubChem BioAssay AID1963437 (Molecular Pharmacology Branch, DTP, NCI, 2024).

System: OVCAR-8 complex spheroid, growth inhibition
Assay: Anticancer human tumor OVCAR-8 cell line growth inhibition [Asc];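 also: spheroids exposed to agents for 7 days before readout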;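 as to viability, T/C: percent viability relative to DMSO vehicle wells taken as 100%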
Details: for IC50: curve of first compound; for viability, T/C: stronger effect = lower value
How it was run: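 Tumor cells were grown as complex spheroids with human endothelial cells (HUVEC) and human mesenchymal stem cells as stroma. Agents were tested alone and in combination, in half-log steps down from the clinical Cmax, or from 10 microM where Cmax was unknown.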

[1] = second compound 0.00316 µM, first compound 0.0316 µM
[2] = second compound 0.00316 µM, first compound 0.1 µM
[3] = second compound 0.00316 µM, first compound 0.316 µM
[4] = second compound 0.00316 µM, first compound 1 µM
[5] = second compound 0.01 µM, first compound 0.0316 µM
[6] = second compound 0.01 µM, first compound 0.1 µM
[7] = second compound 0.01 µM, first compound 0.316 µM
[8] = second compound 0.01 µM, first compound 1 µM
[9] = second compound 0.0316 µM, first compound 0.0316 µM
[10] = second compound 0.0316 µM, first compound 0.1 µM
[11] = second compound 0.0316 µM, first compound 0.316 µM
[12] = second compound 0.0316 µM, first compound 1 µM
[13] = second compound 0.1 µM, first compound 0.0316 µM
[14] = second compound 0.1 µM, first compound 0.1 µM
[15] = second compound 0.1 µM, first compound 0.316 µM
[16] = second compound 0.1 µM, first compound 1 µM
[17] = second compound 0.316 µM, first compound 0.0316 µM
[18] = second compound 0.316 µM, first compound 0.1 µM
[19] = second compound 0.316 µM, first compound 0.316 µM
[20] = second compound 0.316 µM, first compound 1 µM
[21] = second compound 1 µM, first compound 0.0316 µM
[22] = second compound 1 µM, first compound 0.1 µM
[23] = second compound 1 µM, first compound 0.316 µM
[24] = second compound 1 µM, first compound 1 µM
[25] = second compound 0.00316 µM, first compound 0.00316 µM
[26] = second compound 0.00316 µM, first compound 0.01 µM
[27] = second compound 0.01 µM, first compound 0.00316 µM
[28] = second compound 0.01 µM, first compound 0.01 µM
[29] = second compound 0.0316 µM, first compound 0.00316 µM
[30] = second compound 0.0316 µM, first compound 0.01 µM
[31] = second compound 0.1 µM, first compound 0.00316 µM
[32] = second compound 0.1 µM, first compound 0.01 µM
[33] = second compound 0.316 µM, first compound 0.00316 µM
[34] = second compound 0.316 µM, first compound 0.01 µM
[35] = second compound 1 µM, first compound 0.00316 µM
[36] = second compound 1 µM, first compound 0.01 µM

Q: Which results are given for C=CC(=O)N1CCN(c2nc(=O)n(-c3c(C)ccnc3C(C)C)c3nc(-c4c(O)cccc4F)c(F)cc23)C(C)C1 (stereo unspecified) + CNC(C)C(=O)NC1CN(S(=O)(=O)c2cccc(S(=O)(=O)N3CCC4CCC(C(=O)NC(c5ccccc5)c5ccccc5)N4C(=O)C(NC(=O)C(C)NC)C3)c2)CCC2CCC(C(=O)NC(c3ccccc3)c3ccccc3)N2C1=O?
A: IC50 (second compound 0.00316 µM): > 10 µM; IC50 (second compound 0.01 µM): > 10 µM; IC50 (second compound 0.0316 µM): > 10 µM; IC50 (second compound 0.1 µM): > 10 µM; IC50 (second compound 0.316 µM): > 10 µM; IC50 (second compound 1 µM): > 10 µM; viability, T/C [1]: 105%; viability, T/C [2]: 89.3%; viability, T/C [3]: 105%; viability, T/C [4]: 98.7%; viability, T/C (second compound 0.00316 µM, first compound 3.16 µM): 88.3%; viability, T/C (second compound 0.00316 µM, first compound 10 µM): 112%; viability, T/C [5]: 96.9%; viability, T/C [6]: 95%; viability, T/C [7]: 83.6%; viability, T/C [8]: 89.2%; viability, T/C (second compound 0.01 µM, first compound 3.16 µM): 90.6%; viability, T/C (second compound 0.01 µM, first compound 10 µM): 122%; viability, T/C [9]: 94.3%; viability, T/C [10]: 90.5%; viability, T/C [11]: 91.2%; viability, T/C [12]: 81.9%; viability, T/C (second compound 0.0316 µM, first compound 3.16 µM): 86.4%; viability, T/C (second compound 0.0316 µM, first compound 10 µM): 103%; viability, T/C [13]: 85.8%; viability, T/C [14]: 81.4%; viability, T/C [15]: 89.7%; viability, T/C [16]: 86.1%; viability, T/C (second compound 0.1 µM, first compound 3.16 µM): 80%; viability, T/C (second compound 0.1 µM, first compound 10 µM): 92.2%; viability, T/C [17]: 80%; viability, T/C [18]: 84.2%; viability, T/C [19]: 107%; viability, T/C [20]: 69.4%; viability, T/C (second compound 0.316 µM, first compound 3.16 µM): 79.6%; viability, T/C (second compound 0.316 µM, first compound 10 µM): 90.8%; viability, T/C [21]: 68.4%; viability, T/C [22]: 79.8%; viability, T/C [23]: 79.1%; viability, T/C [24]: 84.7%; viability, T/C (second compound 1 µM, first compound 3.16 µM): 65.5%; viability, T/C (second compound 1 µM, first compound 10 µM): 69.1%

Q: For COc1c(OCCCN2CCOCC2)ccc2c3n(c(=NC(=O)c4cnc(N)nc4)nc12)CCN3 + CNC(C)C(=O)NC1CN(S(=O)(=O)c2cccc(S(=O)(=O)N3CCC4CCC(C(=O)NC(c5ccccc5)c5ccccc5)N4C(=O)C(NC(=O)C(C)NC)C3)c2)CCC2CCC(C(=O)NC(c3ccccc3)c3ccccc3)N2C1=O, which IC50 (second compound 0.00316 µM) is on record?
A: > 1 µM

Q: And the IC50 (second compound 0.01 µM)?
A: > 1 µM

Q: What about the IC50 (second compound 0.0316 µM) of the same molecule?
A: 0.915 µM

Q: And the IC50 (second compound 0.1 µM)?
A: 0.73 µM

Q: What about the IC50 (second compound 0.316 µM) of the same molecule?
A: 0.563 µM

Q: What about the IC50 (second compound 1 µM) of the same molecule?
A: 0.326 µM

Q: What about the viability, T/C [25] of the same molecule?
A: 110%

Q: What about the viability, T/C [26] of the same molecule?
A: 94.7%

Q: And the viability, T/C [1]?
A: 131%

Q: And the viability, T/C [2]?
A: 137%

Q: What about the viability, T/C [3] of the same molecule?
A: 126%

Q: And the viability, T/C [4]?
A: 73.1%

Q: And the viability, T/C [27]?
A: 99.5%

Q: What about the viability, T/C [28] of the same molecule?
A: 105%

Q: What about the viability, T/C [5] of the same molecule?
A: 113%

Q: What about the viability, T/C [6] of the same molecule?
A: 149%

Q: What about the viability, T/C [7] of the same molecule?
A: 129%

Q: And the viability, T/C [8]?
A: 64.4%

Q: And the viability, T/C [29]?
A: 99.6%

Q: What about the viability, T/C [30] of the same molecule?
A: 92.7%

Q: What about the viability, T/C [9] of the same molecule?
A: 107%

Q: And the viability, T/C [10]?
A: 133%

Q: And the viability, T/C [11]?
A: 135%

Q: What about the viability, T/C [12] of the same molecule?
A: 44.7%

Q: And the viability, T/C [31]?
A: 82.5%

Q: What about the viability, T/C [32] of the same molecule?
A: 92.9%

Q: What about the viability, T/C [13] of the same molecule?
A: 101%

Q: What about the viability, T/C [14] of the same molecule?
A: 115%

Q: What about the viability, T/C [15] of the same molecule?
A: 105%

Q: And the viability, T/C [16]?
A: 31.6%

Q: What about the viability, T/C [33] of the same molecule?
A: 87.5%

Q: And the viability, T/C [34]?
A: 77.3%

Q: And the viability, T/C [17]?
A: 98.7%

Q: What about the viability, T/C [18] of the same molecule?
A: 113%

Q: And the viability, T/C [19]?
A: 84.1%

Q: What about the viability, T/C [20] of the same molecule?
A: 16%

Q: And the viability, T/C [35]?
A: 92.9%

Q: And the viability, T/C [36]?
A: 90.4%

Q: And the viability, T/C [21]?
A: 111%

Q: And the viability, T/C [22]?
A: 92.5%

Q: And the viability, T/C [23]?
A: 51.3%

Q: And the viability, T/C [24]?
A: 4.42%

Q: With NC1CCC(NC2CC2c2ccccc2)CC1 (stereo unspecified) + CNC(C)C(=O)NC1CN(S(=O)(=O)c2cccc(S(=O)(=O)N3CCC4CCC(C(=O)NC(c5ccccc5)c5ccccc5)N4C(=O)C(NC(=O)C(C)NC)C3)c2)CCC2CCC(C(=O)NC(c3ccccc3)c3ccccc3)N2C1=O as the molecule, how does the IC50 (second compound 0.00316 µM) read?
A: > 0.1 µM

Q: What about the IC50 (second compound 0.01 µM) of the same molecule?
A: > 0.1 µM

Q: And the IC50 (second compound 0.0316 µM)?
A: > 0.1 µM

Q: What about the IC50 (second compound 0.1 µM) of the same molecule?
A: > 0.1 µM

Q: What about the IC50 (second compound 0.316 µM) of the same molecule?
A: > 0.1 µM

Q: And the IC50 (second compound 1 µM)?
A: > 0.1 µM

Q: What about the viability, T/C (second compound 0.00316 µM, first compound 0.000316 µM) of the same molecule?
A: 117%

Q: And the viability, T/C (second compound 0.00316 µM, first compound 0.001 µM)?
A: 106%

Q: And the viability, T/C [25]?
A: 102%

Q: And the viability, T/C [26]?
A: 90.9%

Q: And the viability, T/C [1]?
A: 99.4%

Q: What about the viability, T/C [2] of the same molecule?
A: 87.1%

Q: What about the viability, T/C (second compound 0.01 µM, first compound 0.000316 µM) of the same molecule?
A: 118%

Q: What about the viability, T/C (second compound 0.01 µM, first compound 0.001 µM) of the same molecule?
A: 87.7%

Q: What about the viability, T/C [27] of the same molecule?
A: 119%

Q: What about the viability, T/C [28] of the same molecule?
A: 91.5%

Q: And the viability, T/C [5]?
A: 86.7%

Q: What about the viability, T/C [6] of the same molecule?
A: 91.7%

Q: What about the viability, T/C (second compound 0.0316 µM, first compound 0.000316 µM) of the same molecule?
A: 93.9%

Q: What about the viability, T/C (second compound 0.0316 µM, first compound 0.001 µM) of the same molecule?
A: 112%

Q: What about the viability, T/C [29] of the same molecule?
A: 96.3%

Q: What about the viability, T/C [30] of the same molecule?
A: 98.5%

Q: What about the viability, T/C [9] of the same molecule?
A: 101%

Q: And the viability, T/C [10]?
A: 107%

Q: And the viability, T/C (second compound 0.1 µM, first compound 0.000316 µM)?
A: 79.2%

Q: What about the viability, T/C (second compound 0.1 µM, first compound 0.001 µM) of the same molecule?
A: 79.2%

Q: What about the viability, T/C [31] of the same molecule?
A: 93.3%

Q: And the viability, T/C [32]?
A: 93%

Q: What about the viability, T/C [13] of the same molecule?
A: 88.4%

Q: What about the viability, T/C [14] of the same molecule?
A: 104%

Q: What about the viability, T/C (second compound 0.316 µM, first compound 0.000316 µM) of the same molecule?
A: 78.8%

Q: What about the viability, T/C (second compound 0.316 µM, first compound 0.001 µM) of the same molecule?
A: 86.6%

Q: What about the viability, T/C [33] of the same molecule?
A: 88.2%

Q: And the viability, T/C [34]?
A: 80%

Q: What about the viability, T/C [17] of the same molecule?
A: 82.8%

Q: And the viability, T/C [18]?
A: 87.2%

Q: And the viability, T/C (second compound 1 µM, first compound 0.000316 µM)?
A: 77.9%

Q: And the viability, T/C (second compound 1 µM, first compound 0.001 µM)?
A: 79.3%

Q: And the viability, T/C [35]?
A: 94%

Q: And the viability, T/C [36]?
A: 74.7%

Q: And the viability, T/C [21]?
A: 85.3%

Q: What about the viability, T/C [22] of the same molecule?
A: 85.7%
